Reference: PubChem BioAssay (NCI)
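Each compound was tested at five concentrations against cells in 96-well plates for 48 hours. GI50: concentration for 50% inhibition of growth. TGI denotes the concentration required for complete inhibition of growth.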

Legend:
Assay in all cases: NCI anticancer screen, dose series, 48 h
NCI-H460 lung = tested on: NCI-H460 lung
OVCAR-3 ovarian = tested on: OVCAR-3 ovarian
OVCAR-4 ovarian = tested on: OVCAR-4 ovarian
OVCAR-8 ovarian = tested on: OVCAR-8 ovarian
RPMI-8226 leukemia = tested on: RPMI-8226 leukemia
SF-295 CNS = tested on: SF-295 CNS
SNB-75 CNS = tested on: SNB-75 CNS
SW-620 colon = tested on: SW-620 colon
UACC-257 melanoma = tested on: UACC-257 melanoma
DU-145 prostate = tested on: DU-145 prostate

SMILES	TGI (NCI-H460 lung) [µM]	GI50 (OVCAR-3 ovarian) [µM]	TGI (OVCAR-3 ovarian) [µM]	TGI (OVCAR-4 ovarian) [µM]	TGI (OVCAR-8 ovarian) [µM]	TGI (RPMI-8226 leukemia) [µM]	GI50 (SF-295 CNS) [µM]	TGI (SF-295 CNS) [µM]	TGI (SNB-75 CNS) [µM]	TGI (SW-620 colon) [µM]	TGI (UACC-257 melanoma) [µM]	GI50 (NCI-H460 lung) [µM]	GI50 (OVCAR-4 ovarian) [µM]	GI50 (OVCAR-8 ovarian) [µM]	GI50 (RPMI-8226 leukemia) [µM]	GI50 (SNB-75 CNS) [µM]	GI50 (SW-620 colon) [µM]	GI50 (UACC-257 melanoma) [µM]	TGI (DU-145 prostate) [µM]
O=c1cc(-c2ccccn2)[nH]c2ccc(Cl)cc12	> 100	63.7	> 100	> 100	> 100	> 100	51.5	> 100	> 100	> 100	> 100								
O=C1c2ccccc2C(=O)c2nc3ccc(Cl)cc3cc21	> 100		> 100	> 100	> 100	> 100		> 100	> 100	> 100									
O=C1C=CC2(C=C1)C[C@H](NC(=O)C(F)(F)F)C(=O)O2	> 100		> 100	> 100	> 100	> 100		> 100	> 100		> 100								
N[C@@H]1CCCC[C@@H]1N.O=P([O-])([O-])CN(CP(=O)([O-])[O-])CP(=O)([O-])[O-].[Pt+2]	> 100	> 100	> 100	> 100	> 100	> 100	> 100	> 100	> 100	> 100	> 100	> 100	> 100	> 100	> 100	> 100	> 100	> 100	
Cc1cc(Cl)cc2c1NC(=O)C2=O (tested in a mixture with another compound)	> 100		> 100	> 100	> 100			> 100	> 100	> 100	51.1								
CC1CC[C@]2(C(=O)O)CCC3(C)C(=CCC4[C@@]5(C)CC[C@H](OS(=O)(=O)c6ccccc6)C(C)(C)C5CC[C@]43C)[C@@H]2[C@H]1C (some centres not stated)	> 100		> 100	> 100	> 100	> 100		> 100	> 100	> 100	> 100								
COc1ccccc1NC(=O)C(CC(C(=O)Nc1ccccc1OC)/C(C)=N/Nc1ccc([N+](=O)[O-])cc1[N+](=O)[O-])/C(C)=N/Nc1ccc([N+](=O)[O-])cc1[N+](=O)[O-] (configuration not stated)	> 100		> 100	> 100	> 100	> 100		> 100	> 100	> 100	> 100								
COC(=O)CC(C(C(C)=O)C(=O)OCc1ccccc1)N1C(=O)OCC1c1ccccc1 (configuration not stated)	> 100		> 100	> 100	> 100	> 100		> 100	71.9	> 100	> 100								
Cc1nc(-n2nc(-c3ccccc3)cc2-c2ccccc2)sc1C(/C=C/c1ccc([N+](=O)[O-])cc1)=N/NC(=O)c1ccncc1	> 100		42.5		> 100	> 100		> 100	> 100	> 100	> 100								
COc1ccc(CCN2CCc3c(C)c(C#N)c4nc5ccccc5n4c32)cc1OC	> 100		> 100	> 100	> 100			> 100	88.7	97.3	> 100								> 100
